How the values were obtained:
[1] = molecular target: T1, His6-hTGase 2 (Homo sapiens, UniProt P21980); test: fluorimetric activity assay (substrate Z-Glu(HMC)-Gly-OH) for kinact/KI; assay type: biochemical; settings: mean (SEM) of two to four experiments
T1 construct: purchased Zedira (Darmstadt, Germany) T022, lot 0716a
T1 sequence (P21980 1-687): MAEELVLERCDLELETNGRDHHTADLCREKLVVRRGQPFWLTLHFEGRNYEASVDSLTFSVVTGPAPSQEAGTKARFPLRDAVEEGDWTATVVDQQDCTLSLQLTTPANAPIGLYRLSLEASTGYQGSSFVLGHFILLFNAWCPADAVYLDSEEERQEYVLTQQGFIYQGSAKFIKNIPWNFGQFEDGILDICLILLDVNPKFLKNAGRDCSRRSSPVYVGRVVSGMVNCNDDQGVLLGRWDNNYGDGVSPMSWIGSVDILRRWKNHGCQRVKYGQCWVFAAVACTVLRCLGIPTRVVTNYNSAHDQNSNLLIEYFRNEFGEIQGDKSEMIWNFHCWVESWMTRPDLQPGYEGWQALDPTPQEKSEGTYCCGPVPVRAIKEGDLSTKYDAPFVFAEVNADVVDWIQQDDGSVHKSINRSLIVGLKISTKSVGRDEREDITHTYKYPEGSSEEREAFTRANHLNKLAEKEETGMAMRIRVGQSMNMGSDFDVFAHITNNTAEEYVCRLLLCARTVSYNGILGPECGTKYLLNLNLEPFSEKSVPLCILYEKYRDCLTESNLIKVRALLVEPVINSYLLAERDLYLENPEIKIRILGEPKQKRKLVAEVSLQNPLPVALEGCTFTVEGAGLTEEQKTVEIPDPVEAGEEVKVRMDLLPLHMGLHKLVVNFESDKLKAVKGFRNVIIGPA

[2] = molecular target: T2, in-house produced N-terminally Twin-Strep-tagged hTGase 2 (Homo sapiens, UniProt P21980); test: fluorescence anisotropy (FA)-based transamidase activity assay, in-house Twin-Strep-tagged hTGase 2; assay type: biochemical
T2 construct: thrombin cleavage site (N); made in house; host or cells: E. coli BL21(DE3)
T2 sequence (P21980 1-687): T1 sequence (P21980 1-687)
Source text: The gene of hTGase 2 (Uniprot ID: P21980) with an N-terminal thrombin cleavage site was cloned into the pPSG-IBA105 vector containing the sequence for an N-terminal Twin-Strep-tag (IBA Lifesciences GmbH, Göttingen, Germany) to obtain the final plasmid pPSG-IBA105/TCS-hTGase 2. The plasmid construct was verified by DNA sequencing (Eurofins Genomics Germany GmbH) and then transformed into E. coli BL21(DE3) by the heat–shock method. hTGase 2-expressing E. coli cells were lysed by lysozyme treatment, and hTGase 2 was purified by affinity chromatography on an ÄKTA purifier UPC 10 FPLC equipped with a Strep-Tactin XT cartridge (GE Healthcare Europe GmbH, Freiburg, Germany). Identity and purity of self-produced hTGase 2 were verified by SDS-PAGE and Western Blot analysis, respectively. Protein concentration was determined according to Bradford. More detailed descriptions of the generation and characterization of the final plasmid construct pPSG-IBA105/TCS-hTGase 2 and the expression, purification, and characterization of the self-produced hTGase 2 protein will be published elsewhere (manuscript in preparation).
For the analysis of inhibitor 1 on self-produced hTGase 2, 2 µg/mL of the enzyme was used to guarantee comparability with the value reported by Wodtke et al., whereas all other experiments were performed with 5 µg/mL of either commercial or self-produced hTGase 2 (corresponding to 64.1 and 61.6 nM, respectively, when assuming 100% active protein). Parallel and perpendicular fluorescence intensities were measured over 1190 s in 35 s intervals (1) or over 1776 s in 48 s intervals (2, 3) and used to calculate the FA. Data of FA for the first 875 s (1) or 384 s (2, 3) were analyzed by linear regression, with slopes corresponding to enzymatic rates. Rates in the presence of inhibitor were normalized by dividing them by the respective rate in the absence of inhibitor, and normalized rates were analyzed according to Equation (S29) in Supplementary Materials to calculate values of IC50. Data analysis was performed with Microsoft Excel (Microsoft Office Professional Plus 2016, Microsoft® Corporation, USA) and GraphPad Prism version 5.03 or version 6.07 for Windows (GraphPad Software, La Jolla, CA, USA).

**Q.** What does the source list for C=CC(=O)NCCCC[C@H](NC(=O)Cc1ccccc1I)C(=O)N1CCN(c2ccc([N+](=O)[O-])nc2)CC1 [Compound 2, N^α-(2-Iodophenylacetyl)-N^ε-acryloyl-L-lysin-4-(2-nitropyridin-5-yl)piperazide]?
**A.** kinact/KI [1]: 8340 M⁻¹ s⁻¹; IC50 ([2]; 5 min pre-incubation of enzyme and inhibitor, mean (SEM) of three experiments): 116 nM; IC50 ([2]; 30 min pre-incubation, hTGase 2 (in-house) 61.6 nM, mean (SEM)): 35.2 nM
